Patent US20110189122A1, “Use of Molt-Accelerating Compounds, Ecdysteroids, Analogs Thereof, and Chitin Synthesis Inhibitors for Controlling Termites” (priority 2004, published 2011)

Legend:
C. formosanus [1] = assay: Feeding ecdysteroid-treated filter paper to subterranean termites, 12-day exposure; type: in vivo; settings: for days of exposure until some termites exhibited the jackknife position (incomplete molting): treated filter paper
Description: (§1) Termites were collected from three colonies each of C. formosanus and R. flavipes and were held in the laboratory at 26±1° C. and 98±2% RH before use Technical grade ecdysone was dissolved in methanol to obtain 0.1, 1, 10, 100 and 1,000-ppm solutions by serial dilution. Methanol solutions (i.e., 0 ppm AI) were used as untreated controls. Each concentration solution (0.2 ml) was pipetted onto […] Whatman No. 1 filter paper fitted into 5-cm-diameter glass Petri dishes and allowed to evaporate overnight.
(§2) This filter paper served as the cellulose food source for twenty-five termites, plus one soldier for R. flavipes or three soldiers for C. formosanus, which were introduced into each Petri dish after moistening the filter paper with 0.175 ml deionized water. For each species, two subsamples each of three colonies were used per concentration for a total of 72 experimental units. The bioassay units was held at 26±1° C. Observation was made daily for 12 days. Termites showing symptoms of incomplete molting were counted, and dead termites were removed from each unit. […] For each treatment and species combination, mean percent termites showing symptoms of incomplete molting and mortality among concentrations at 12 day were arcsine-root transformed and subjected to the analysis of variance (ANOVA). Significant differences (α=0.05) among concentrations were separated using Fisher's least significant difference (LSD) test (SAS Institute 1999).
(§3) 20-hydroxyecdysone is an ecdysone byproduct. Technical grade 20-hydroxyecdysone (20 E) was dissolved and used in the same manners as was ecdysone, as discussed above in Example 1.

R. flavipes = assay: as above; type: in vivo; settings: for days of exposure until some termites exhibited the jackknife position (incomplete molting): treated filter paper
Description: as §1, §2, §3

[2] = tested on: eastern subterranean termites (EST), Reticulitermes flavipes (Kollar); assay: Test #2 Choice Feeding Bait Test, Halofenozide+Noviflumuron (treated filter paper vs. untreated SYP); type: in vivo; settings: for mg consumed after 14 days (Mean ± SEM), untreated SYP: SYP block offered against FP with single active 5000 ppm; for No. Survivors/50 after 14 days (Mean ± SEM) / % Surviving / mg consumed after 14 days (Mean ± SEM), treated FP: single active 5000 ppm on filter paper; for % Surviving: 14 days; for mg consumed after 14 days (Mean ± SEM), treated FP: choice vs. SYP
Description: (§4) Test #1 Choice Feeding Bait Test, Halofenozide+Hexaflumuron. A paired choice feeding test was conducted to compare feeding response and resultant mortality caused by various combinations of technical grade halofenozide and hexaflumuron treated on filter paper (acetone carrier). The test apparatus consisted of two round plastic containers connected by a 7-cm long piece of 2.5-mm diameter (ID) tygon tubing. A known number of termite workers were introduced into a central harborage chamber (5.5 cm round container with ventilated lid) containing a vermiculite/sand/water mixture of ca. 1:1:1. The central harborage chamber was connected by the tygon tubing to the bait foraging chamber (without sand/vermiculite matrix) containing the paired feeding choices.
Test #2. Choice Feeding Bait Test, Halofenozide+Noviflumuron. A standard paired choice feeding test using the same methods described in Test #1 was conducted to compare feeding response and resultant mortality caused by various combinations of technical grade halofenozide and noviflumuron treated on filter paper (acetone carrier). EST were given the choice to feed between untreated blocks of southern yellow pine (SYP) and treated filter paper. Halofenozide and noviflumuron were tested individually at concentrations of 5000 ppm. Five thousand ppm (5000-ppm) noviflumuron was also tested in combination with 1250, 2500, or 5000 ppm halofenozide. After fourteen days, all treatments were removed, oven-dried, and weighed for consumption. Because of the rapid activity of noviflumuron, surviving termites were also counted in each replicate after only 14 days of feeding. Each treatment was replicated four times with 50 termites per replicate.

[3] = tested on: eastern subterranean termites (Reticulitermes flavipes); settings: wood slice feeding blocks vacuum-impregnated with halofenozide, choice test; cited from earlier work
[4] = tested on: eastern subterranean termites (EST), Reticulitermes flavipes (Kollar); assay: Test #1 Choice Feeding Bait Test, Halofenozide+Hexaflumuron (treated filter paper vs. untreated SYP); type: in vivo; settings: for % Surviving: 26 days; for mg consumed after 12 days (Mean ± SEM), treated FP: choice vs. SYP
Description: as §4
ESTs were given the choice to feed between untreated blocks of southern yellow pine (SYP) and treated filter paper. Halofenozide was tested individually at concentrations of 1250, 2500, and 5000 ppm. Hexaflumuron was tested at 5000 ppm, and also combined with each of the aforementioned concentrations of halofenozide. For comparative purposes, technical grade noviflumuron were also tested at 5000 ppm. After twelve days, all treatments were removed, oven-dried, and weighed for consumption. Filter paper was placed in all bioassay units that were held for fourteen more days. Surviving termites were then counted in each replicate. Thus, survival was counted at 26 days after initial exposure to the toxicant. Each treatment was replicated four times with 50 termites per replicate.

C. formosanus [5] = settings: C. formosanus, 10,000 ppm, similar condition; cited from earlier work
Amitermes wheeleri = assay: Forced feeding test on treated purified cellulosic bait; type: in vivo; settings: 5000 ppm noviflumuron on cellulosic bait
Description: A forced feeding test was conducted to compare mortality caused by different active ingredients treated on purified cellulosic bait. The test apparatus was the same as that described in Example 5. Noviflumuron was tested on the bait at 5000-ppm concentration, and also in combination with 5000-ppm Halofenozide Blank bait was also tested. Surviving termites were also counted at 28 days after initial exposure to the toxicant.

[6] = C. formosanus, 0.1 ppm, 12-day exposure
[7] = C. formosanus, 1 ppm, 12-day exposure
[8] = C. formosanus, 10 ppm, 12-day exposure
[9] = C. formosanus, 100 ppm, 12-day exposure
[10] = C. formosanus, 1,000 ppm, 12-day exposure
[11] = C. formosanus, 1,000 ppm, 12-day exposure, listed as 20 E
[12] = R. flavipes, 0.1 ppm, 12-day exposure
[13] = R. flavipes, 1 ppm, 12-day exposure
[14] = R. flavipes, 10 ppm, 12-day exposure
[15] = R. flavipes, 100 ppm, 12-day exposure
[16] = R. flavipes, 1,000 ppm, 12-day exposure
[17] = SYP block offered against FP with single active 5000 ppm
[18] = single active 1250 ppm on filter paper
[19] = single active 2500 ppm on filter paper
[20] = single active 5000 ppm on filter paper

Structure (SMILES)	% Incomplete Molting (±SE) (C. formosanus [1]; [6]) [a %]	% Incomplete Molting (±SE) (C. formosanus [1]; [7]) [a %]	% Incomplete Molting (±SE) (C. formosanus [1]; [8]) [a %]	% Incomplete Molting (±SE) (C. formosanus [1]; [9]) [a %]	days of exposure until some termites exhibited the jackknife position (incomplete molting) (C. formosanus [1]; C. formosanus)	% Incomplete Molting (±SE) (R. flavipes; [12]) [a %]	% Incomplete Molting (±SE) (R. flavipes; [13]) [a %]	% Incomplete Molting (±SE) (R. flavipes; [14]) [a %]	% Incomplete Molting (±SE) (R. flavipes; [15])	days of exposure until some termites exhibited the jackknife position (incomplete molting) (R. flavipes; R. flavipes)	mg consumed after 14 days (Mean ± SEM), untreated SYP [2]	No. Survivors/50 after 14 days (Mean ± SEM) [2]	% Surviving [2] [%]	mg consumed after 14 days (Mean ± SEM), treated FP [2] [a mg]	mg consumed after 12 days (Mean ± SEM), untreated SYP [4, 17]	No. Survivors/50 after 26 days (Mean ± SEM) [4, 20]	% Surviving [4, 20] [%]	mg consumed after 12 days (Mean ± SEM), treated FP [4, 20] [a mg]	also measured
CC(C)(O)CC[C@@H](O)[C@](C)(O)[C@H]1CC[C@@]2(O)C3=CC(=O)[C@@H]4C[C@@H](O)[C@@H](O)C[C@]4(C)[C@H]3CC[C@]12C [20-hydroxyecdysone]	0.00 ± 0.00	0.00 ± 0.00	0.00 ± 0.00	2.38 ± 1.19	approximately 7 days	0.00 ± 0.00	0.00 ± 0.00	0.00 ± 0.00	3.85 ± 1.40ab %	approximately 7 days									% Mortality (±SE) (C. formosanus [1]; [6]): 1.19 ± 0.75ab %; % Mortality (±SE) (C. formosanus [1]; [7]): 10.12 ± 9.42bc %; % Mortality (±SE) (C. formosanus [1]; [8]): 3.57 ± 2.26abc %; % Mortality (±SE) (C. formosanus [1]; [9]): 11.90 ± 5.43c %; % Incomplete Molting (±SE) (C. formosanus [1]; [10]): 26.19 ± 6.09b %; % Mortality (±SE) (C. formosanus [1]; [10]): 74.40 ± 3.62d %; % Incomplete Molting (±SE) (C. formosanus [1]; [11]): evident; % Mortality (±SE) (C. formosanus [1]; [11]): ca. 75%; % Mortality (±SE) (R. flavipes; [12]): 0.64 ± 0.64a %; % Mortality (±SE) (R. flavipes; [13]): 0.00 ± 0.00a %; % Mortality (±SE) (R. flavipes; [14]): 0.64 ± 0.64a %; % Mortality (±SE) (R. flavipes; [15]): 76.19 ± 11.28b %; % Incomplete Molting (±SE) (R. flavipes; [16]): 7.69 ± 3.29b %; % Mortality (±SE) (R. flavipes; [16]): 100%; % Incomplete Molting (±SE) (R. flavipes; R. flavipes, 1,000 ppm, 12-day exposure, listed as 20 E): evident
CC(C)(C)N(NC(=O)c1ccc(Cl)cc1)C(=O)c1ccccc1 [Halofenozide, halofenozide]											8.35 ± 3.91 a mg	22.25 ± 5.36 b	44.5	10.12 ± 1.48	14.97 ± 3.85 a mg	23.25 ± 7.88 days	46.5	9.33 ± 1.41	concentrations at which feeding deterrence occurs [3]: greater than 4,000 ppm; mg consumed after 12 days (Mean ± SEM), untreated SYP ([4]; SYP block offered against FP with single active 1250 ppm): 9.49 ± 2.57 a mg; mg consumed after 12 days (Mean ± SEM), untreated SYP ([4]; SYP block offered against FP with single active 2500 ppm): 7.92 ± 2.13 a mg; No. Survivors/50 after 26 days (Mean ± SEM) [4, 18]: 45.00 ± 2.04 a; % Surviving [4, 18]: 90.0%; mg consumed after 12 days (Mean ± SEM), treated FP [4, 18]: 16.05 ± 3.39 a mg; No. Survivors/50 after 26 days (Mean ± SEM) [4, 19]: 33.75 ± 6.56 bc; % Surviving [4, 19]: 67.5%; mg consumed after 12 days (Mean ± SEM), treated FP [4, 19]: 18.70 ± 4.32 a mg; mortality (C. formosanus [5]): 50%
O=C(NC(=O)c1c(F)cccc1F)Nc1cc(Cl)c(OC(F)(F)C(F)F)c(Cl)c1 [Hexaflumuron, hexaflumuron]															9.28 ± 3.55 b mg	32.5 ± 5.48 bc	65.0	21.20 ± 2.06	
O=C(NC(=O)c1c(F)cccc1F)Nc1cc(Cl)c(OC(F)(F)C(F)C(F)(F)F)c(Cl)c1F (stereo not shown) [Noviflumuron, noviflumuron]											2.58 ± 1.03 b mg	13.50 ± 3.52 bc	27.0	14.58 ± 2.20	1.77 ± 1.71 b mg	5.00 ± 3.72 e	10.0	16.17 ± 3.64	% Surviving ([2]; listed as noviflumuron): 27%; No. Survivors/30 after 28 days (Amitermes wheeleri): reduced termite survivorship in half; % Surviving (Amitermes wheeleri; 28 days): 43%; No. Survivors/30 after 28 days (Amitermes wheeleri; listed as noviflumuron): 12
C[C@H]([C@H](O)CCC(C)(C)O)[C@H]1CC[C@@]2(O)C3=CC(=O)[C@@H]4C[C@@H](O)[C@@H](O)C[C@]4(C)[C@H]3CC[C@]12C [ecdysone]	0.00 ± 0.00	0.00 ± 0.00	2.38 ± 2.38	8.33 ± 5.95	approximately 7 days	0.00 ± 0.00	0.00 ± 0.00	0.00 ± 0.00	0.00 ± 0.00a %	approximately 7 days									mortality at 0.1 ppm (C. formosanus [1]; Coptotermes formosanus, 288 h, C. formosanus, 0.1 ppm, 12-day exposure, read-out: % Mortality (±SE)): 1.79 ± 1.22%; mortality at 1 ppm (C. formosanus [1]; Coptotermes formosanus, 288 h, C. formosanus, 1 ppm, 12-day exposure, read-out: % Mortality (±SE)): 1.19 ± 0.75%; mortality at 10 ppm (C. formosanus [1]; Coptotermes formosanus, 288 h, C. formosanus, 10 ppm, 12-day exposure, read-out: % Mortality (±SE)): 11.3 ± 6.55%; mortality at 100 ppm (C. formosanus [1]; Coptotermes formosanus, 288 h, C. formosanus, 100 ppm, 12-day exposure, read-out: % Mortality (±SE)): 100%; mortality at 1000 ppm (C. formosanus [1]; Coptotermes formosanus, 288 h, C. formosanus, 1,000 ppm, 12-day exposure, read-out: % Mortality (±SE)): 93.5 ± 6.55%; mortality at 0.1 ppm (R. flavipes; Reticulitermes flavipes, 288 h, R. flavipes, 0.1 ppm, 12-day exposure, read-out: % Mortality (±SE)): 0%; mortality at 1 ppm (R. flavipes; Reticulitermes flavipes, 288 h, R. flavipes, 1 ppm, 12-day exposure, read-out: % Mortality (±SE)): 0%; mortality at 10 ppm (R. flavipes; Reticulitermes flavipes, 288 h, R. flavipes, 10 ppm, 12-day exposure, read-out: % Mortality (±SE)): 0%; mortality at 100 ppm (R. flavipes; Reticulitermes flavipes, 288 h, R. flavipes, 100 ppm, 12-day exposure, read-out: % Mortality (±SE)): 60.3 ± 18.1%; mortality at 1000 ppm (R. flavipes; Reticulitermes flavipes, 288 h, R. flavipes, 1,000 ppm, 12-day exposure, read-out: % Mortality (±SE)): 100%
